Experimental findings from US20150272931A1, “New Treatment” (priority 2012, published 2015) are described below.

For the assay, the system named is sea lice (L. salmonis). Description: In-feed treatment of sea lice infested salmon: efficacy. The format is in vivo, Lepeophtheirus salmonis on Atlantic salmon. The note with it: for Reduction of total sea lice: adult sea lice, lice examined ten days after end of treatment. The source says:
In-feed treatment of sea lice infested salmon with 5 different neonicotinoids (a) Method: Atlantic salmon (estimated mean weight 50-100 g) were batch weighed and allocated to a single 2 m diameter challenge tank. Fish were challenged with sea lice (L. salmonis) copepodids. Within one week of the successful lice challenge, fish were randomly allocated from the 2 m challenge tank to 1 m diameter treatment tanks so that each tank contained thirty fish.
Fish were maintained until lice developed to adult stages. This was monitored by periodic examination of fish from the control tank. There were five test compounds acetamiprid (A), clothianidin (B), imidacloprid (C), nitenpyram (D) plus a control (E), each compound was tested at three doses. Experimental diets were prepared by top dressing feed pellets with the powder formulation and sealing with fish oil. Once lice had developed to adult stages, fish in all tanks received an in-feed treatment according to the relevant group for a period of seven days. Uneaten feed was collected daily to estimate the mean dose achieved in each group. Fish were examined for lice ten days following the end of the treatment period.
Following the 7day treatment period, the mean sea lice count in the control group was 7±3 adult sea lice meaning the total of adult males, adult non-ovigerous females and adult ovigerous females.

[1] abbreviates: dose 1 mg/kg/day in feed for 7 days.
Where [2] appears, read: dose 5 mg/kg/day in feed for 7 days.
Where [3] appears, read: dose 10 mg/kg/day in feed for 7 days.

With `C/C(=N\C#N)N(C)Cc1ccc(Cl)nc1` [Acetamiprid, acetamiprid], the “Reduction of total sea lice” value by setting is: under setting [1], 53%; under setting [2], 64%; under setting [3], 85%.

In the case of `CN/C(=N\[N+](=O)[O-])NCc1cnc(Cl)s1` [Clothianidin, (E)-1-(2-Chlor-1,3-thiazol-5-ylmethyl)-3-methyl-2-nitroguanidin], the “sea lice reduction efficacy” value (at all three selected concentrations (10, 5, 1 mg/kg/day)) is on record as no less than 90%. Besides, the “Reduction of total sea lice” value is, setting by setting: under setting [1], 90%; under setting [2], 98%; under setting [3], 99%. Besides, where the note is “in-feed treatment, summary statement”, the sea lice elimination result was “full sea lice elimination”.

Turning to `O=[N+]([O-])NC1=NCCN1Cc1ccc(Cl)nc1` [Imidacloprid, imidacloprid], the “Reduction of total sea lice” value is 91% under setting [1], 94% under setting [2] and 81% under setting [3].

`CCN(Cc1ccc(Cl)nc1)/C(=C/[N+](=O)[O-])NC` [Nitenpyram, nitenpyram]: the “Reduction of total sea lice” value under setting [1] is 48%, the “Reduction of total sea lice” value under setting [2] was 89% and the “Reduction of total sea lice” value under setting [3] is 89%.
